Experiment [1] addresses T1, Zap-70 (Homo sapiens, UniProt P43403).
T1 sequence (P43403 1-619): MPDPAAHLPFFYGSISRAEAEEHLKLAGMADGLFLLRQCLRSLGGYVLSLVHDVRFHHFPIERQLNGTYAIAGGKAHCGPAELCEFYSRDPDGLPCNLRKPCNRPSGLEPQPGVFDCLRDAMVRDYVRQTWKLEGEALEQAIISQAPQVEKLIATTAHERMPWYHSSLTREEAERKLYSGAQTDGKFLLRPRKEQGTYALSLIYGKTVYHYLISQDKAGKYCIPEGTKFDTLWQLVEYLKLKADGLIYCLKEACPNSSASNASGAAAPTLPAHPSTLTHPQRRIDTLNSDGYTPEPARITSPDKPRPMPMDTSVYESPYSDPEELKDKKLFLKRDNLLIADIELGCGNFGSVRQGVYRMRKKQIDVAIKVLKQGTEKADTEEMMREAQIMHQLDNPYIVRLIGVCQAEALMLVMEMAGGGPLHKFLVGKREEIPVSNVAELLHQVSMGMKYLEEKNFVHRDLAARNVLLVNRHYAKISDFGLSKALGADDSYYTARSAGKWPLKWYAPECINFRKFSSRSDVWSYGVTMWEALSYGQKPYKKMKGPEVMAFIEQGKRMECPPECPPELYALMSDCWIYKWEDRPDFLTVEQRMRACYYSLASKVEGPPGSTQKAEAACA
The experiment in a line: Saturation-transfer difference (STD) NMR binding to recombinant Zap-70. Also noted: purchased Origene, Rockville, MD. Particulars: Pom 320 μM, Len 2.56 mM, ATP 2.56 mM, Zap-70 approximately 2 μM, deuterated PBS. As to the method: (§1) (A) Jurkat cells were transfected with scrambled (Sc) siRNA or Zap-70 siRNA. Whole cell lysates were subjected to immunoblotting using indicated Abs. (B) Jurkat cells were treated with lenalidomide ([…]) or pomalidomide (1 and 3 μM) for 4 h and 8 h. Whole cell lysates were subjected to p-Zap ELISA assay. (C) Jurkat whole cell lysates were incubated with pomalidomide-beads in the presence or absence of competitor (1 mM free pomalidomide) for 1 h. After elution, samples were subjected to immunoblotting using anti-Zap-70 Ab. (D) Saturation-transfer difference resulting from the binding of pomalidomide to Zap-70. Pomalidomide is at 320 μM and Zap-70 is approximately 2 μM in deuterated PBS solution. […] (E) Saturation-transfer difference resulting from the binding of pomalidomide to Zap-70 in the presence of 2.56 mMATP. Pomalidomide is at 320 μM and Zap-70 is approximately 2 μM in deuterated PBS solution. […] Note that both ATP and pomalidomide show binding the Zap-70. (F) Non-cell based Zap-70 kinase assay was carried out, according to manufacturer's protocol.
(A) Saturation-transfer difference resulting from the binding of lenalidomide to Zap-70, with lenalidomide (2.56 mM) and Zap-70 (2 μM) in deuterated PBS solution. […] (B) Saturation-transfer difference resulting from the binding of lenalidomide to Zap70 in the presence of 2.56 mM ATP, with lenalidomide (2.56 mM) and Zap-70 (2 μM) in deuterated PBS solution.
Commercial recombinant Zap-70 (Origene, Rockville, MD) was prepared by gel filtration buffer exchange into deuterated phosphate-buffered saline (PBS), which removed any components of the protein storage buffer, including glycerol. Len and Pom were made as d6-DMSO stock solutions and frozen in aliquots prior to use. ATP was stored frozen in aliquots at −20° C. in deuterated PBS. NMR samples were prepared in 5 mm SampleJet tubes to a final volume of 500 μl by adding 5-20 μl of the appropriate IMiD stock solution to the buffer-exchanged protein. The final concentration of protein in the NMR samples was approximately 2 μM. […]

For another experiment, the system named is granzyme-B (GZM-B). The experiment in a line: GZM-B expression in KHYG-1 cells (immunoblotting, real-time qPCR). In kind it is cell-based. As to the method:
(A) KHYG1 cells were cultured with pomalidomide (0.25-1 μM) for 24 h. (B) Isolated primary NK cells from healthy volunteers (#1, #2) were cultured with pomalidomide (0.3-1 μM) for 24 h. (C) KHYG-1 cells were transfected with Scsi or Zap-70si. After 48 h, cells were cultured for 24 h in the absence or presence (0.5 μM) of pomalidomide. Whole cell lysates and RNAs were subjected to immunoblotting using indicated Abs.
(A) KHYG-1 cells were transfected with Scsi or CRBNsi. After 48 h, cells were cultured in the absence or presence of pomalidomide (0.5 μM) for 24 h, and cell lysates immunoblotted with indicated Abs. (B) KHYG-1 cells were transfected with Scsi or Zap-70si, and then cultured for 72 h with pomalidomide (0.25 μM), in the absence of IL-2. Cells were counted and incubated with calcein AM-labeled U266 for 4 h at indicated effector/target (E/T) ratios.
(§2) (A) KHYG-1 cells were transfected with CRBN, IKZF1, or IKZF3 siRNA. The transfectants were then cultured for 24 h with pomalidomide (0.5 μM). The arrow indicates CRBN. (B) KHYG-1 cells were cultured with pomalidomide for 24 h (0.5 μM), in the presence or absence of bortezomib (BTZ; 2.5 and 5 nM). (C, D) KHYG-1 cells were cultured for 24 h with lenalidomide, pomalidomide, or CC-220 (i.e., iberdomide) (0.01-1 μM). Whole cell lysates and RNAs were subjected to immunoblotting using indicated Abs (C) and real-time q-PCR (D), respectively.
(In general: A western blot detects proteins with antibodies after separation by electrophoresis.)

The test system of a further experiment is IKZF3. As to the kind of experiment: IKZF3 expression in KHYG-1 cells (immunoblotting). In kind it is cell-based. The procedure: as §2
The target in experiment [2] is T1, Zap-70. As to the kind of experiment: Immunoblotting of p-Zap-70 in NK-92 cells. In kind it is cell-based. The following applies: 24 h, Pom 0.5 and 1 μM, CC-220 0.01, 0.1, 1 μM. As to the method:
(§3) (A) NK-92 cells were cultured with Pom (0.5 and 1 μM) for 24 h. Whole cell lysates were subjected to immunoblotting using indicated Abs. (B) NK-92 cells were cultured with Pom (0.5 and 1 μM) for 48 h. The cells were subsequently incubated with calcein-AM-stained U266 cells for 4 h at the indicated effector/target (E/T) ratios. Percent specific lysis was calculated as described previously. (C) NK-92 cells were cultured with Pom (0.03-3 μM) for 72 h. Cell growth was assessed by MTT assay. (D) NK-92 cells were transfected with scrambled (Sc) or Zap-70 siRNA (Zap70si). After 72 h incubation, cell viability was measured by trypan-blue dye exclusion. For B, C, and D, data are representative of at least two independent experiments, and values are expressed in mean±SD.
(§4) (A) NK-92 cells were cultured with Len (1 μM), Pom (0.01, 0.1, 1 μM) or CC-220 (0.01, 0.1, 1 μM) for 24 h. Whole cell lysates were subjected to immunoblotting using indicated Abs. (B) NK-92 cells were cultured with Pom (0.1 and 1 μM) or CC-220 ([…]) for 48 h. NK cell activity was measured by incubation with calcein AM-labeled U266 cells for 4 h at E/T ratio of 2.5/1. Percent specific lysis was calculated as previously described. Data are representative of three independent experiments, and values are expressed in mean±SD. *: p<0.01.

The test system of another experiment is U266 cells. As to the kind of experiment: NK-92 NK cell activity against calcein-AM-stained U266 cells. In kind it is cell-based. The following applies: NK-92 cells, 48 h; Pom 0.5 and 1 μM; CC-220 0.1 and 1 μM, E/T 2.5/1. The procedure:
as §3, §4

In another experiment the target is CRBN (Homo sapiens, UniProt Q96SW2). Particulars: cited from earlier work.
Sequence of CRBN (Q96SW2 whole entry, species assumed): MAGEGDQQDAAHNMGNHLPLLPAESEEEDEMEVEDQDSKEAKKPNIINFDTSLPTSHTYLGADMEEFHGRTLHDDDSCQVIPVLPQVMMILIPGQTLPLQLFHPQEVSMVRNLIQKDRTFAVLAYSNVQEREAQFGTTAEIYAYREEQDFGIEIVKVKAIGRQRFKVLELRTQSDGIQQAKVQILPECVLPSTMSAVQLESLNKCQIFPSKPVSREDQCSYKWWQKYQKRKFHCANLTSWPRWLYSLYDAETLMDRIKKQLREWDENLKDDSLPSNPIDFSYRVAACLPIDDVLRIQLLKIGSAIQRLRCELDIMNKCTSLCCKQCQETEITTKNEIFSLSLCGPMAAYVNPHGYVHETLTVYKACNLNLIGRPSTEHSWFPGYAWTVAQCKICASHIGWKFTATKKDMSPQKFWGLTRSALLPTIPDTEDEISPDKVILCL
In experiment [3] the target is T1, Zap-70. As to the kind of experiment: Immunoblotting of p-Zap-70, p-LAT and p-ERK in PBMCs. The format is cell-based. Also noted: endogenous in cells; host or cells: primary PBMCs, primary T cells and primary NK cells from healthy volunteers. Particulars: 16 h, Pom 0.01-1 μM, Len 1 μM. The procedure: (A) PBMCs were cultured with pomalidomide (“Pom”) (0.01-1 μM) for 16 h. […] (B) PBMCs were cultured with pomalidomide (0.1 and 1 μM) for the indicated time periods. (C) PBMCs were cultured with lenalidomide (“Len”) (1 μM) for 16 h. (D) Primary T-cells from healthy volunteer were cultured with pomalidomide (0.25-1 μM) for 16 h. (E) Jurkat cells were cultured with pomalidomide (0.5 and 1 μM) for 16 h. Whole cell lysates were subjected to immunoblotting (A-E) using indicated Abs. (F) Jurkat cells were cultured with pomalidomide (0.01-1 μM) or lenalidomide (0.01-1 μM) for 72 h. Cell growth was assessed by MTT assay.
To characterize the effect of IMiDs on Zap-70 function in immune effector cells, pomalidomide triggered phosphorylation of Zap-70 was evaluated along with its known downstream target linker of activated T-cells (LAT) in PBMCs from healthy volunteers. […] Image J densitometric analysis confirmed 42% increased p-Zap-70 after pomalidomide (1 μM) treatment (FIG. 1A, lower panel). The increased p-Zap-70, p-LAT, as well as downstream p-ERK in PBMCs triggered by pomalidomide is also time-dependent (FIG. 1B). […] Since Zap-70 is a mediator of T-cell receptor signaling, whether IMiDs triggered p-Zap-70 in T cells from healthy volunteers was studied.

Experiment [4] deals with T1, Zap-70. The experiment in a line: PathScan Phospho-Zap-70 (Tyr319) Sandwich ELISA in Jurkat cells. The format is cell-based. The following applies: lenalidomide (1 and 3 μM) or pomalidomide (1 and 3 μM), 4 h and 8 h, Len<Pom. As to the method: as §1
Phosphorylation of Zap-70 was evaluated using PathScan Phospho-Zap-70 (Tyr319) Sandwich ELISA Kit (Cell Signaling Technology), according to manufacturer's protocol.
Background: An ELISA detects its analyte on a solid surface through an enzyme-linked reagent.

The mark [5] stands for this setting: pomalidomide 0.5 μM 24 h, BTZ 2.5 and 5 nM.

Turning to `Nc1ncnc2c1ncn2[C@@H]1O[C@H](COP(=O)(O)OP(=O)(O)OP(=O)(O)O)[C@@H](O)[C@H]1O` [ATP], the “direct binding to Zap-70 (STD NMR)” value on Zap-70 [1] was “both ATP and lenalidomide bind to Zap-70”.
Consider `O=C1CC[C@H](N2Cc3c(OCc4ccc(CN5CCOCC5)cc4)cccc3C2=O)C(=O)N1` [CC-220, iberdomide], for which, in the experiment with granzyme-B (GZM-B) (0.01-1 μM, 24 h, immunoblotting and real-time qPCR), the “potency in triggering GZM-B, compared among lenalidomide, pomalidomide and CC-220” value is reported as “more potently upregulated GZM-B than lenalidomide or pomalidomide”. In the experiment on IKZF3 (0.01-1 μM, 24 h), the IKZF3 expression entry is recorded as “downregulation of IKZF3”. For the same compound, on Zap-70 [2], the “p-Zap-70 (immunoblotting)” value is “induced p-Zap-70 in a dose-dependent fashion”. Moreover, the “NK cell activity against U266 cells (percent specific lysis)” value in the experiment with U266 cells is given as “enhanced NK cell activity”. The “binding affinity to CRBN relative to lenalidomide or pomalidomide” value at CRBN was “enhanced binding affinity to CRBN relative to lenalidomide or pomalidomide”.
`CC(C)C[C@H](NC(=O)[C@H](Cc1ccccc1)NC(=O)c1cnccn1)B(O)O` [bortezomib]: in the experiment with granzyme-B (GZM-B) (setting [5]), the “Pom-induced GZM-B expression in presence of bortezomib” value is “downregulated Pom-induced GZM-B expression in a dose-dependent fashion”. Also, the “IKZF3 expression in presence of bortezomib” value with IKZF3 (setting [5]) is reported as “upregulation of IKZF3”.
Regarding `Nc1cccc2c1CN(C1CCC(=O)NC1=O)C2=O` (stereo not drawn) [lenalidomide], at Zap-70 [3], the “phosphorylation of LAT (immunoblotting)” value is “similarly triggered p-Zap-70 and p-LAT in PBMCs”; the “phosphorylation of Zap-70 (immunoblotting)” value was “similarly triggered p-Zap-70 and p-LAT in PBMCs”. For the same compound, on Zap-70 [1], the “direct binding to Zap-70 (STD NMR)” value is reported as “similarly binds to Zap-70”. Besides, the “p-Zap-70 (Tyr319) by ELISA” value on Zap-70 [4] is “increased p-Zap-70 (Tyr319) in a dose-dependent fashion”.

The record behind these values is patent publication US20240216354A1, “IMMUNOMODULATORY IMIDE DRUGS AS ZETA-CHAIN-ASSOCIATED PROTEIN KINASE 70 (ZAP70) AGONISTS AND USES THEREOF” (Dana-Farber Cancer Institute, Inc., priority 2019, published 2024).
